Reference: article PMC5187916, “Discovery of a New Class of Cathepsin K Inhibitors in Rhizoma Drynariae as Potential Candidates for the Treatment of Osteoporosis” (International Journal of Molecular Sciences, 2016)

How the values were obtained:
[1] = biological target: T1, Cathepsin K (Homo sapiens, UniProt P43235); assay: fluorescence enzyme assay with recombinant human Ctsk, LR-AFC substrate; format: biochemical
T1 construct: gene CTSK
T1 sequence (P43235 115-329): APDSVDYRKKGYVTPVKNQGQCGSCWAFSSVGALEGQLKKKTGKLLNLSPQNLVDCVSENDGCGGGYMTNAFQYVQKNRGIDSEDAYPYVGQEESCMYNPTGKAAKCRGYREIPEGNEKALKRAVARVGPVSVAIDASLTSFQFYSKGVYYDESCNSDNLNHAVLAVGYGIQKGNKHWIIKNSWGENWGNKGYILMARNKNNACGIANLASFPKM

[2] = biological target: T1, Cathepsin K; assay: fluorescence enzyme assay with recombinant human Ctsk, LR-AFC substrate (kit positive control); format: biochemical

IC50 [1] | IC50 [2] | Molecule
8.79 µM |  | C=C(C)C(CC=C(C)C)Cc1c(O)cc2c(c1O)C(=O)CC(c1ccc(O)cc1O)O2 (stereo not drawn) [KF, Kushennol F]
27.2 µM |  | C=C(C)[C@H](CC=C(C)C)Cc1c(O)cc(O)c2c1O[C@H](c1ccc(O)cc1O)CC2=O [SG, Sophoraflavanone G]
 | 0.047 µM | FF-FMK
